For assay [1], the system named is CEM cells, leukemic T-cell lymphocytes. Description: Apoptosis of leukemic lymphocytes, FITC-annexinV/propidium iodide microscopy. The assay is classed as cell-based, human. To be noted: for apoptotic leukemic lymphocytes: 20 hours. As for the experimental part: (§1) Cloudman S-91 mouse melanoma cells (sub-clone M-3, CCL 53.1; American Type Culture Collection, Rockville, Md.) were grown in RMPI medium supplemented with 10% fetal bovine serum (Invitrogen, Inc) and 5% penicillin-streptomycin (Invitrogen, Inc). Mouse breast cancer cells (66Cl-1; American Type Culture Collection, Rockville, Md.) that are estrogen-receptor negative were grown in DMEM medium supplemented with 10% fetal bovine serum (Invitrogen, Inc) and 5% penicillin/streptomycin (Invitrogen, Inc). Human T-cell leukemic lymphocytes (CEM; American Type Culture Collection, Rockville, Md.) were grown in MEM medium supplemented with 7% fetal calf serum. Cultures were passaged twice a week.
CEM cells, leukemic T-cell lymphocytes obtained from a child with acute lymphocytic leukemia, were maintained in Petri dishes in MEM (minimal essential medium) with 7% fetal calf serum in a 5% CO2 incubator at 37° C. For experiments, methyl sulfone was added to the medium at concentrations from 0-6.0%. In control cells, no methyl sulfone was added. Cells (2×10^6 per ml) were incubated for 20 hrs in the presence or absence of methyl sulfone, and then assayed for apoptosis using FITC-annexinV/propidium iodide microscopy. Methyl sulfone was also compared to the anti-microtubule drug, vinblastine. Vinblastine (VNB) and its derivative, vincristine, are standard treatments for acute lymphocytic leukemia, as well as other cancers. We used the concentration of VNB that is found in the blood of subjects being treated with this drug (10^−7 M) (6,7).

The subject of assay [2] is M3 Cloudman melanoma cells. The assay can be described thus: Live cell video microscopy of melanoma cells (morphology, contact inhibition). The assay is classed as cell-based, mouse. Here is the method:
as §1
Cells were plated on 35 mm tissue culture dishes at concentration of 10^5 cells/plate, unless stated otherwise, and incubated at 37° C., 5% CO2. After 24 hours, methyl sulfone (0-10% in medium) was added to appropriate plates and immediately videotaped with a Nikon TE300 inverted microscope equipped with a 10×0.25 NA Plan Achromat objective lens. Control cells (no drug) were videotaped as described above. Time series (10 min) of phase contrast images were acquired at a video rate of 1 frame/5 s with a Watec-902B CCD video camera (Watec Corp., Japan) via the stream acquisition option of Metamorph image acquisition and analysis software (Universal Imaging Corp., Downington, Pa.). During recordings, cells were kept at 37° C. with 10 mM Hepes, pH 7.4. Time series of cells +/−2% methyl sulfone were obtained every 24-48 hours for up to 6 weeks.
M3 Cloudman melanoma cells were plated into culture dishes containing RPMI medium. After 24 hour media was changed to control medium (no drug) or to media containing different concentrations of methyl sulfone (1-10% methyl sulfone in RPMI medium). Cells were examined by live cell video microscopy immediately after adding drug and every 24 hours up to 144 hours.
The possibility that the data generated from treating cells with methyl sulfone was a nonspecific effect due to changes in extracellular osmolarity was considered. To test this possibility an equimolar concentration of urea was substituted for 2% methyl sulfone; urea has a chemical structure and dipolar moment that is similar to methyl sulfone. […] We next replaced 2% methyl sulfone with an equimolar concentration of dimethyl sulfoxide (DMSO).

Take methyl sulfone: the apoptotic leukemic lymphocytes is reported as 74% in assay [1] (4% methyl sulfone) and 88% in assay [1] (6% methyl sulfone). The “effectiveness against leukemic lymphocytes compared with vinblastine” value in assay [1] (comparison with 10^−7 M vinblastine) is given as “more effective than vinblastine”. In assay [2] (2% methyl sulfone, by 24 hours), the contact inhibition result is “contact inhibited”. For the same substance, in assay [2] (2% methyl sulfone, over the next few hours), the “cell morphology after re-attachment” value was “flattened morphology”. Besides, the “morphology immediately after adding drug” value in assay [2] (all concentrations (1-10% in RPMI medium)) is “cells became round with some cells detaching from culture plates”.

These data come from US10363229B2, “Methods and compositions for the treatment of cancer” (priority 2009, dated 2019).
